This is an account of results in US5439927A, “Imidazoyl-β-oxo-β-benzenepropanethiomide derivative, compositions and method of use thereof” (Mitsubishi Kasei Corporation, priority 1991, dated 1995).

What is called IC30 is the point of the concentration-response curve where the effect stands at 30%.

Assay [1] has as its system aorta thoracica of a Wistar rat. The assay is described as follows: Suppression of 20 mM K shrinkage (contraction) of rat aorta thoracica (Test Example 1). As to conditions: Klebs-Heneleit solution, 37° C., 20 mMK, read-out: Rat aorta IC30 20 mMK (dose of a drug suppressing 30% of 20 mMK shrinkage). Here is the method:
The aorta thoracica of a Wistar rat was resected and then suspended in a Klebs-Heneleit solution kept at 37° C., according to the Weir and Weston's method (Br. J. Pharmac., 88, 121, (1986)), to determine the dose (IC30 20 mMK) of a drug suppressing 30% of 20 mMK shrinkage. As control, the same test done about the known compound A described in Bull. Soc. Chem. Fr., 1975, 829.

Assay [2] has as its system spontaneous hypertensive rats (OKAMOTO-AOKI strain). In words: Blood pressure lowering in spontaneous hypertensive rats after oral administration (Test Example 2). It counts as in vivo. Conditions: 2 hours after the dosing, direct method. As for the experimental part:
At a dose of 3 mg/kg or 10 mg/kg, the compound of the present invention was orally administered to spontaneous hypertensive rats (OKAMOTO-AOKI strain) with an average blood pressure of 150 mmHg or more. According to the direct method described by Nakano H. and Takayanagi K., Japanese Journal of Pharmacology, Vol. 25, 25 (1975), blood pressure and cardiac output were measured. Using the compound A used in the Test Example 1 as control, the same test was done.

As for `CNC(=S)C1(C(=O)c2ccc(-n3ccnc3)cc2)CCC1` [Compound 356, 4-(1-imidazolyl)-N-methyl-β-oxo-α,α-trimethylenebenzenepropanethioamide], the concentration for an effect of 30% (IC30) in assay [1] was determined as 2.1 µM. In assay [2] (10 mg/kg), the “Mean blood pressure: Blood pressure decrease” value stood at 58.9 mmHg.
As to `CNC(=S)C(C)(C)C(=O)c1ccccc1-n1ccnc1` [Compound 302], the “Mean blood pressure: Blood pressure decrease” value in assay [2] (10 mg/kg) is listed as 51.9 mmHg.
Regarding `CNC(=S)C1(C(=O)c2ccc(-n3ccnc3)cc2)CC1` [Compound 342], the “Mean blood pressure: Blood pressure decrease” value in assay [2] (10 mg/kg) is given as 31.2 mmHg.
For `CNC(=S)C(C)(C)C(=O)c1ccc(C#N)cc1` [Compound 224], the 30% effect concentration (IC30) in assay [1] came out at 5 µM. Also, the “Mean blood pressure: Blood pressure decrease” value in assay [2] (10 mg/kg) stood at 38.8 mmHg.
For `CNC(=S)C(C)(C)C(=O)c1cccc(-n2ccnc2)c1` [Compound 265], in assay [1], the IC30 is 0.62 µM. Further, in assay [2] (3 mg/kg), the “Mean blood pressure: Blood pressure decrease” value is recorded as 76.5 mmHg.
With `CNC(=S)C(C)(C)C(=O)c1ccc(-n2ccnc2)cc1` [Compound 226], the IC30 in assay [1] was 13 µM. Moreover, in assay [2] (10 mg/kg), the “Mean blood pressure: Blood pressure decrease” value was found to be 35.9 mmHg.
On to `CNC(=S)C1(C(=O)c2ccc(-n3ccnc3C)cc2)CCC1` [Compound 357], for which, in assay [1], the IC30 was 0.18 µM. Further, the “Mean blood pressure: Blood pressure decrease” value in assay [2] (10 mg/kg) is on record as 78.4 mmHg.
For `CNC(=S)C(C)(C)C(=O)c1ccccc1` [Compound A, N, α, α-trimethyl-β-oxobenzenepropanethioamide, reference compound], the IC30 in assay [1] was found to be 13.6 µM. The “Mean blood pressure: Blood pressure decrease” value in assay [2] (10 mg/kg) was found to be 14.1 mmHg.
